From US20170007610A1, “NOVEL HETEROBICYCLIC COMPOUNDS AS KAPPA OPIOID AGONISTS” (priority 2014, published 2017)
pEC50, pIC50: −log10 of the molar value. Where two headings read alike, the source gives them in different places.

Assays:
kappa opioid receptor [1] = molecular target: T1, kappa opioid receptor (Homo sapiens, UniProt P41145); test: Invitro KOR agonistic activity, cAMP based functional assay; assay type: cell-based
T1 construct: grown in complete Ham's F-12 medium

kappa opioid receptor [2] = molecular target: T2, kappa opioid receptor (Mus musculus, UniProt P33534); test: Ex-vivo KOR agonistic activity, electrically stimulated mouse vas deferens (MVD) model
T2 construct: from tissue; host or cells: mouse vas deferens (male Swiss Albino mice)
T2 sequence (P33534 whole entry): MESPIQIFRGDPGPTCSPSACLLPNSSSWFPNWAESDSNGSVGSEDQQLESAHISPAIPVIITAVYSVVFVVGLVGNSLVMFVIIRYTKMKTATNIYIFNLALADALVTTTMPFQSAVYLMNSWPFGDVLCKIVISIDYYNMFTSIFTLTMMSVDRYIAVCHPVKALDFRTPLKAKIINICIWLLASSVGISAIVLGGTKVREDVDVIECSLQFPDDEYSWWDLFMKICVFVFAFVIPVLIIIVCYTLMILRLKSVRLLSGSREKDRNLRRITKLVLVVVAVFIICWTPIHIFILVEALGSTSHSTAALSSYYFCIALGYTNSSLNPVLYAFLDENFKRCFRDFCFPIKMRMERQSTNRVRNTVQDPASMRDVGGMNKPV
Experimental: a) Ex-Vivo KOR Agonistic Activity Testing, Using Electrically Stimulated Mouse Vas Deferens (MVD) Model:
Ex-vivo, the kappa opioid receptor agonistic activity of test compounds were tested on the electrically stimulated mouse vas deferens (MVD) preparations (Henderson et al., Br. J. Pharmacol., 46, 764-766, 1972; Portoghese et al., Life Sci. 36, 801-805, 1985) and IC50 were determined. In general, vas deferentia were taken from male Swiss Albino mice (30-40 g) and suspended in 8 ml organ baths, at 31° C., containing modified Krebs-Henseleit solution, without magnesium sulphate. Each vas deferens was equilibrated for 45 min at 2.6 mN tension and then stimulated at supramaximal voltage with five 1 ms pulses, at a frequency of 0.1 Hz. Concentration-response curves were determined by cumulative dosing. Inhibitory Concentration, 50% (IC50) values were determined by Sigmoidal dose-response (variable slope) equation, using Prizm v 6.01. The kappa opioid receptor specificity was determined by rightward shift in concentration-response curves in presence of 1 nM norbinaltorphimine (norBNI), a selective kappa opioid receptor antagonist.

T1 sequence (P41145 whole entry): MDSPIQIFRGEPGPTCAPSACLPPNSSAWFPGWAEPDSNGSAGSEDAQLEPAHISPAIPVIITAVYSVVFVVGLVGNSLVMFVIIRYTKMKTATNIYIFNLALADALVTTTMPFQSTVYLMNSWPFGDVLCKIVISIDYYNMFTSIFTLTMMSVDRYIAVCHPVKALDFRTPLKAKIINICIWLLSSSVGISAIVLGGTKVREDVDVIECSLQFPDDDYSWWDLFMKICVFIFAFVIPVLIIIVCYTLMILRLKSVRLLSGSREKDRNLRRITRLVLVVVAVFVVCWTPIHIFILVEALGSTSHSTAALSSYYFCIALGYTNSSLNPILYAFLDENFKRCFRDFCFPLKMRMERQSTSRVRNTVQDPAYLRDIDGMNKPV

SMILES	pEC50 (kappa opioid receptor [1])	pIC50 (kappa opioid receptor [2])	pIC50 (kappa opioid receptor [2]; electrically stimulated mouse vas deferens preparation, cumulative dosing, read-out: Ex-vivo IC50)
CN(C(=O)COc1ccc2ccccc2n1)[C@H](CN1CC[C@H](O)C1)c1ccccc1 [Compound 1, N-((S)-2-((S)-3-hydroxypyrrolidin-1-yl)-1-phenylethyl)-N-methyl-2-(quinolin-2-yloxy)acetamide]	10.66	8.46	
CN(C(=O)COc1ccc2cc(NS(C)(=O)=O)ccc2n1)[C@H](CN1CC[C@H](O)C1)c1ccccc1 [Compound 2, N-((S)-2-((S)-3-hydroxypyrrolidin-1-yl)-1-phenylethyl)-N-methyl-2-((6-methylsulfonamido)quinolin-2-yloxy)acetamide]	8.31	5.59	
CN(C(=O)COc1cc(NS(C)(=O)=O)c2ccccc2n1)[C@H](CN1CC[C@H](O)C1)c1ccccc1 [Compound 3, N-((S)-2-((S)-3-hydroxypyrrolidin-1-yl)-1-phenylethyl)-N-methyl-2-((4-methylsulfonamido)quinolin-2-yloxy)acetamide]	10.46	6.38	
CN(C(=O)COc1ccnc2ccc(NS(C)(=O)=O)cc12)[C@H](CN1CC[C@H](O)C1)c1ccccc1 [Compound 4, N-((S)-2-((S)-3-hydroxypyrrolidin-1-yl)-1-phenylethyl)-N-methyl-2-((6-methylsulfonamido)quinolin-4-yloxy)acetamide]	8.92	5.82	
CN(C(=O)COc1ccc(NS(C)(=O)=O)c2ncccc12)[C@H](CN1CC[C@H](O)C1)c1ccccc1 [Compound 5, N-((S)-2-((S)-3-hydroxypyrrolidin-1-yl)-1-phenylethyl)-N-methyl-2-((8-methylsulfonamido)quinolin-5-yloxy)acetamide]	10.89	8.25	
CN(C(=O)COc1ccc([N+](=O)[O-])c2cccnc12)[C@H](CN1CC[C@H](O)C1)c1ccccc1 [Compound 7, N-((S)-2-((S)-3-hydroxypyrrolidin-1-yl)-1-phenylethyl)-N-methyl-2-((5-nitroquinolin-8-yl)oxy)acetamide]	10.82	9.08	
CN(C(=O)COc1ccc([N+](=O)[O-])c2c1NCCC2)[C@H](CN1CC[C@H](O)C1)c1ccccc1 [Compound 8, N-((S)-2-((S)-3-hydroxypyrrolidin-1-yl)-1-phenylethyl)-N-methyl-2-((5-nitroquinolin-1,2,3,4-tetrahydroquinolin-8-yl)oxy)acetamide]	10.74	8.21	
CN(C(=O)COc1nccc2ccccc12)[C@H](CN1CC[C@H](O)C1)c1ccccc1 [Compound 9, N-((S)-2-((S)-3-hydroxypyrrolidin-1-yl)-1-phenylethyl)-2-(isoquinolin-1-yloxy)-N-methylacetamide]	10.92	7.89	
CN(C(=O)COc1ncc(NS(C)(=O)=O)c2ccccc12)[C@H](CN1CC[C@H](O)C1)c1ccccc1 [Compound 10, N-((S)-2-((S)-3-hydroxypyrrolidin-1-yl)-1-phenylethyl)-N-methyl-2-((4-methylsulfonamido)isoquinolin-1-yloxy)acetamide]	10.05	7.27	
CN(C(=O)COc1cccc2c1NCCC2)[C@H](CN1CC[C@H](O)C1)c1ccccc1 [Compound 11, N-((S)-2-((S)-3-hydroxypyrrolidin-1-yl)-1-phenylethyl)-N-methyl-2-(1,2,3,4-tetrahydroquinolin-8-yloxy)acetamide]	11.40	8.80	
CN(C(=O)COc1cccc2c1N(S(C)(=O)=O)CCC2)[C@H](CN1CC[C@H](O)C1)c1ccccc1 [Compound 12, N-((S)-2-((S)-3-hydroxypyrrolidin-1-yl)-1-phenylethyl)-N-methyl-2-((1-(methylsulfonyl)-1,2,3,4-tetrahydroquinolin-8-yl)oxy)acetamide]	11.30	8.70	
CN1CCCc2cccc(OCC(=O)N(C)[C@H](CN3CC[C@H](O)C3)c3ccccc3)c21 [Compound 13, N-((S)-2-((S)-3-hydroxypyrrolidin-1-yl)-1-phenylethyl)-N-methyl-2-((1-methyl-1,2,3,4-tetrahydroquinolin-8-yl)oxy)acetamide]	9.04	6.90	
CN(C(=O)COc1ccc(NS(C)(=O)=O)c2c1NCCC2)[C@H](CN1CC[C@H](O)C1)c1ccccc1 [Compound 14, N-((S)-2-((S)-3-hydroxypyrrolidin-1-yl)-1-phenylethyl)-N-methyl-2-((5-(methylsulfonamido)-1,2,3,4-tetrahydroquinolin-8-yl)oxy)acetamide]	10.92	8.27	
CN(C(=O)COc1ccc2occc2c1)[C@H](CN1CC[C@H](O)C1)c1ccccc1 [Compound 16]	10.40	8.40	
CN(C(=O)COc1ccc2ccoc2c1)[C@H](CN1CC[C@H](O)C1)c1ccccc1 [Compound 17, 2-(benzofuran-6-yloxy)-N-((S)-2-((S)-3-hydroxypyrrolidin-1-yl)-1-phenylethyl)-N-methylacetamide]	10.92	8.15	
CN(C(=O)COc1ccc2c(c1)OCC2)[C@H](CN1CC[C@H](O)C1)c1ccccc1 [Compound 18, 2-((2,3-dihydrobenzofuran-6-yl)oxy)-N-((S)-2-((S)-3-hydroxypyrrolidin-1-yl)-1-phenylethyl)-N-methylacetamide]	10.15	8.09	
CN(C(=O)COc1ccc2ncccc2c1)[C@H](CN1CC[C@H](O)C1)c1ccccc1 [Compound 19, N-((S)-2-((S)-3-hydroxypyrrolidin-1-yl)-1-phenylethyl)-N-methyl-2-(quinolin-6-yloxy)acetamide]	8.88	6.87	
CN(C(=O)COc1ccc2c(c1)CCCN2)[C@H](CN1CC[C@H](O)C1)c1ccccc1 [Compound 21, N-((S)-2-((S)-3-hydroxypyrrolidin-1-yl)-1-phenylethyl)-N-methyl-2-((1,2,3,4-tetrahydroquinolin-6-yl)oxy)acetamide]	8.91	6.24	
CNS(=O)(=O)Nc1ccc(OCC(=O)N(C)[C@H](CN2CC[C@H](O)C2)c2ccccc2)c2cccnc12 [Compound 23, N-((S)-2-((S)-3-hydroxypyrrolidin-1-yl)-1-phenylethyl)-N-methyl-2-((8-((N-methylsulfamoyl)amino)quinolin-5-yl)oxy)-acetamide]	10.77	8.08	
CN(C(=O)COc1ccc(NS(=O)(=O)N(C)C)c2ncccc12)[C@H](CN1CC[C@H](O)C1)c1ccccc1 [Compound 24, 2-((8-((N,N-dimethylsulfamoyl)amino)quinolin-5-yl)oxy)-N-((S)-2-((S)-3-hydroxypyrrolidin-1-yl)-1-phenylethyl)-N-methyl-acetamide]	10.26	8.30	
CCN(CC)S(=O)(=O)Nc1ccc(OCC(=O)N(C)[C@H](CN2CC[C@H](O)C2)c2ccccc2)c2cccnc12 [Compound 25, 2-((8-((N,N-diethylsulfamoyl)amino)quinolin-5-yl)oxy)-N-((S)-2-((S)-3-hydroxypyrrolidin-1-yl)-1-phenylethyl)-N-methyl-acetamide]	11.52	8.09	
CN(C(=O)COc1ccc(NS(=O)(=O)CCl)c2ncccc12)[C@H](CN1CC[C@H](O)C1)c1ccccc1 [Compound 26]	10.92	7.54	
CN(C(=O)COc1ccc(NS(C)(=O)=O)c2nccnc12)[C@H](CN1CC[C@H](O)C1)c1ccccc1 [Compound 27, N-((S)-2-((S)-3-hydroxypyrrolidin-1-yl-)-1-phenylethyl)-N-methyl-2-((8-(methylsulfonamido)quinoxain-5-yl)oxy)acetamide]	8.68	6.77	
CN(C(=O)COc1ncc2ccc(Br)cc2n1)[C@H](CN1CC[C@H](O)C1)c1ccccc1 [Compound 28, 2-((7-bromoquinazolin-2-yl)oxy)-N-((S)-2-((S)-3-hydroxypyrrolidin-1-yl)-1-phenylethyl)-N-methylacetamide]	8.85	5.83	
CN(C(=O)COc1cccc2c1NCC2)[C@H](CN1CC[C@H](O)C1)c1ccccc1 [Compound 29, N-((S)-2-((S)-3-hydroxypyrrolidin-1-yl-)-1-phenylethyl)-2-(indolin-7-yloxy)-N-methylacetamide]	9.96	6.83	
CN(C(=O)COc1ccc2c3c1CCCN3S(=O)(=O)N2)[C@H](CN1CC[C@H](O)C1)c1ccccc1 [Compound 30]	6.05		5.03
CC(=O)N1CCCc2c(OCC(=O)N(C)[C@H](CN3CC[C@H](O)C3)c3ccccc3)ccc(NS(C)(=O)=O)c21 [Compound 31, 2-((l-acetyl-8-(methylsulfonamido)-1,2,3,4-tetrahydroquinolin-5-yl)oxy)-N-((S)-2-((S)-3-hydroxypyrrolidin-1-yl)-1-phenylethyl)-N-methylacetamide]	9.29	6.93	
CN(C(=O)COc1ccc(NC(=O)CN)c2ncccc12)[C@H](CN1CC[C@H](O)C1)c1ccccc1 [Compound 33, 2-((8-(2-aminoacetamido)quinolin-5-yl)oxy)-N-((S)-2-((S)-3-hydroxypyrrolidin-1-yl)-1-phenylethyl)-N-methylacetamide]	11.22	8.08	
CN(C(=O)COc1ccc(NC(=O)CO)c2ncccc12)[C@H](CN1CC[C@H](O)C1)c1ccccc1 [Compound 34, 2-((8-(2-hydroxyacetamido)quinolin-5-yl)oxy)-N-((S)-2-((S)-3-hydroxypyrrolidin-1-yl)-1-phenylethyl)-N-methylacetamide]	9.31	6.59	
